Source: patent US20100092562A1, “SUSTAINED-RELEASE DRUG DELIVERY COMPOSITIONS AND METHODS” (priority 2002, published 2010)
Counter-ions that a name gives are not always drawn. Like-named read-outs stand apart in the source and are kept apart here.

What was measured:
[1] = cited from earlier work
[2] = Release profile of base vs salt forms of drugs in liquid controlled release compositions, USP Apparatus 2; assay type: physicochemical; details: liquid sustained release compositions, 65% W/W sucrose; stored 3 weeks at room temperature
[3] = Effect of sucrose concentration in dispersion medium on albuterol release, USP Apparatus 2; assay type: physicochemical; details: alginate beads, 20% coating; stored 1 week at room temperature
Experimental: The experiment was carried out with 16 mg of albuterol bound to the alginic acid resin, with 20% coating, and 40%, 50%, 60% or 65% W/W of sucrose in the dispersion medium. First, the alginate beads were loaded with the drug albuterol, where 5% of albuterol and 5% of alginic acid were used. Albuterol and alginic acid powders were placed in a beaker, 100 ml of water was added, and the mixture was stirred until a homogenous gel was formed. Then, 70% microcrystalline cellulose and 20% lactose were placed into a bowl of a low shear mixer and pre-blended with a spatula. Then, the albuterol-alginate gel was incrementally added to the microcrystalline cellulose and lactose blend and mixed to produce a wet mass. Additional 50 ml of water was added to the beaker to wash down its sides and added to the wet mass during its blending, and the resulting wet mass was transferred into a polyethylene bag. Then, the resulting wet mass material was extruded using a dome screen attachment with 0.8 mm screen size at 55 rpm, with the wet mass being gradually added into the extruder. Subsequently, the extrudate was spheronized at 750 rpm for approximately 30 sec, and then dried overnight in a convection oven at 45° C. The beads of appropriate size (material that passed through 16 mesh screens and retained on 20 mesh screens) were selected. […]

[4] = sodium alginate 0.877 g/L, 25° C.
Experimental: The studies were performed with a two compartment plexiglass dialysis cell (Hollenbeck laboratory) and having a cellulose membrane (molecular weight cutoff of 6000 Daltons) Bel-Art Products (Pequannock, N.J.) placed between the two cell compartments. […] The dialysis cell was shaken at 80 RPM in a thermostatic water bath at 25° C. until equilibrium was reached (30 h). The solution was removed from the drug compartment and the concentrations of free drug and polymer-bound drug measured by high performance liquid chromatography (“HPLC”).

[5] = single IR oral dose of 10 mg HC, 5 male human subjects
[6] = total drug concentration 4.97 (M × 10^4)
[7] = total drug concentration 5.47 (M × 10^4)
[8] = total drug concentration 5.96 (M × 10^4)
[9] = total drug concentration 6.96 (M × 10^4)
[10] = total drug concentration 7.95 (M × 10^4)
[11] = total drug concentration 8.95 (M × 10^4)
[12] = total drug concentration 9.94 (M × 10^4)
[13] = total drug concentration 14.91 (M × 10^4)
[14] = total drug concentration 19.88 (M × 10^4)
[15] = total drug concentration 24.86 (M × 10^4)
[16] = total drug concentration 30.40 (M × 10^4)
[17] = total drug concentration 41.20 (M × 10^4)
[18] = total drug concentration 50.70 (M × 10^4)

COc1ccc2c3c1O[C@H]1C(=O)CC[C@H]4[C@@H](C2)N(C)CC[C@]314 (relative stereo) [hydrocodone, morphinan-6-one, 4,5-epoxy-3-methoxy-17-methyl-,(5)-, [R—(R*,R*)]-2,3-dihydroxybutane-dioate (1:1), hydrate (2:5)]
elimination half-life of the parent-compound ([1]; in vivo): 3.8 to 4.5 h
Tmax [1, 5]: approximately 1.3±0.3 hours
mean peak serum concentration [1, 5]: 23.6 ± 5.2 ng/mL
total excretion occurring in the first 24 hours ([1]; single oral dose): About 70%

CN[C@@H](C)[C@@H](O)c1ccccc1 (relative stereo) [pseudoephedrine, benzenemethanol, -[1-(methylamino)ethyl]-, [S—(R*,R*)]-, hydrochloride]
rate of release of salt forms vs base forms [2]: comparable
half-life ([1]; affected by urinary pH): 9 to 16 h
dose excreted unchanged in the urine within 24 hours of dosing ([1]; in vivo): up to 90%
Tmax following administration ([1]; previously published studies): 1.5 to 2.4 h

CC(C)(C)NCC(O)c1ccc(O)c(CO)c1 (stereo not shown) [albuterol]
release from beads suspended in 50%, 60% and 65% W/W of sucrose vs 40% W/W of sucrose [3]: slower

CN(C)CCC(c1ccc(Cl)cc1)c1ccccn1 (stereo not shown) [chlorpheniramine, 2-pyridinepropanamine, -(4-chlorophenyl)-N,N-dimethyl-, (Z)-2-butenedioate (1:1)]
rate of release of salt forms vs base forms [2]: comparable
excreted in the feces ([1]; in vivo): Less than 1%
excreted in the urine (metabolism to monodesmethyl and didesmethyl compounds) ([1]; in vivo): up to 26%
renal elimination, share of total excretion ([1]; in vivo): approximately 50%

CC(C)NCC(O)COc1cccc2ccccc12.Cl (stereo not shown) [propranolol, propranolol hydrochloride]
(l/g), r/(Df) [4, 6]: 4.88 L/g
Amount bound per gram of polymer [4, 6]: 4.59 M × 10^4
Bound drug concentration [4, 6]: 4.03 M × 10^4
Free drug concentration [4, 6]: 0.94 M × 10^4
(l/g), r/(Df) [4, 7]: 3.97 L/g
Amount bound per gram of polymer [4, 7]: 4.84 M × 10^4
Bound drug concentration [4, 7]: 4.25 M × 10^4
Free drug concentration [4, 7]: 1.22 M × 10^4
(l/g), r/(Df) [4, 8]: 3.60 L/g
Amount bound per gram of polymer [4, 8]: 5.16 M × 10^4
Bound drug concentration [4, 8]: 4.53 M × 10^4
Free drug concentration [4, 8]: 1.43 M × 10^4
(l/g), r/(Df) [4, 9]: 3.21 L/g
Amount bound per gram of polymer [4, 9]: 5.86 M × 10^4
Bound drug concentration [4, 9]: 5.14 M × 10^4
Free drug concentration [4, 9]: 1.82 M × 10^4
(l/g), r/(Df) [4, 10]: 2.49 L/g
Amount bound per gram of polymer [4, 10]: 6.23 M × 10^4
Bound drug concentration [4, 10]: 5.46 M × 10^4
Free drug concentration [4, 10]: 2.49 M × 10^4
(l/g), r/(Df) [4, 11]: 1.71 L/g
Amount bound per gram of polymer [4, 11]: 6.12 M × 10^4
Bound drug concentration [4, 11]: 5.37 M × 10^4
Free drug concentration [4, 11]: 3.57 M × 10^4
(l/g), r/(Df) [4, 12]: 1.62 L/g
Amount bound per gram of polymer [4, 12]: 6.66 M × 10^4
Bound drug concentration [4, 12]: 5.83 M × 10^4
Free drug concentration [4, 12]: 4.10 M × 10^4
(l/g), r/(Df) [4, 13]: 1.17 L/g
Amount bound per gram of polymer [4, 13]: 8.61 M × 10^4
Free drug concentration [4, 13]: 7.36 M × 10^4
(l/g), r/(Df) [4, 14]: 0.87 L/g
Amount bound per gram of polymer [4, 14]: 9.81 M × 10^4
Bound drug concentration [4, 14]: 8.60 M × 10^4
Free drug concentration [4, 14]: 11.28 M × 10^4
(l/g), r/(Df) [4, 15]: 0.60 L/g
Amount bound per gram of polymer [4, 15]: 10.73 M × 10^4
Bound drug concentration [4, 15]: 9.41 M × 10^4
Free drug concentration [4, 15]: 15.45 M × 10^4
(l/g), r/(Df) [4, 16]: 0.57 L/g
Amount bound per gram of polymer [4, 16]: 11.49 M × 10^4
Bound drug concentration [4, 16]: 10.08 M × 10^4
Free drug concentration [4, 16]: 20.32 M × 10^4
(l/g), r/(Df) [4, 17]: 0.41 L/g
Amount bound per gram of polymer [4, 17]: 12.37 M × 10^4
Bound drug concentration [4, 17]: 10.84 M × 10^4
Free drug concentration [4, 17]: 30.35 M × 10^4
(l/g), r/(Df) [4, 18]: 0.33 L/g
Amount bound per gram of polymer [4, 18]: 12.93 M × 10^4
Bound drug concentration [4, 18]: 11.34 M × 10^4
Free drug concentration [4, 18]: 39.36 M × 10^4
